According to US9567301B2, “Pyrrol-1-yl benzoic acid derivatives useful as myc inhibitors” (Whitehead Institute for Biomedical Research, priority 2012, dated 2017):
pEC50, pIC50: −log10 of the molar value.

How the values were obtained:
c-Myc/Max/Ebox DNA = c-Myc/Max/Ebox DNA (Homo sapiens, UniProt P01106); experiment: c-Myc/Max/Ebox DNA AlphaScreen assay; format: binding; set-up: An exemplary assay uses full-length human c-Myc and Max proteins; his6 (cleaved yes); made in house; conditions: c-Myc/Max/Ebox DNA AlphaScreen; NA: inactive under assay conditions; read-out: Biochemical IC50
Method: This protocol was used to generate the biochemical data in Table 2 and FIG. 11. The primary AlphaScreen assay is amenable to 384-well and 1536-well plate formats for HTS. Human his6-c-Myc and his6-Max were used with biotinylated DNA containing a single Ebox sequence (biotin[…]) purchased from MWG Operon. Free c-Myc was generated from his6-c-Myc through thrombin cleavage of the his6 tag. For 384-well plate assays, 10 μL of a 2× solution of free c-Myc (25 nM final), Ni++-coated Acceptor Bead (25 μg/ml final), and biotinylated Ebox oligo (10 nM final) were added to 384-well plates with a Biotek EL406 liquid handler. 100 nL of compounds from stock plates were added by pin transfer using a Janus Workstation (PerkinElmer), allowing the compounds to interact with c-Myc prior to c-Myc binding with Max. In the current assay, DMSO was not allowed to exceed 2% v/v of the assay. 10 μl of 2× master mix containing streptavidin-coated donor beads (25 μg/ml final) and his6-Max (1.25 nM final) were added. AlphaScreen measurements were performed on an Envision 2104 (PerkinElmer) utilizing the manufacturer's protocol. The assay can also be performed in 1536-plate format with 8 μL total volume using two 4 μL additions (instead of […] and 10 μL respectively).
Assays are performed with minor modifications from the manufacturer's protocol (PerkinElmer). Both master mixes were made in room temperature assay buffer (50 mM HEPES, 150 mM NaCl, 0.2% w/v BSA, 0.02% w/v Tween20, 40 μg/ml glycogen, 500 μM DTT, pH 8.0, DTT and glycogen added fresh). Alpha beads were added to respective master solutions and wrapped in foil. All subsequent steps were performed in low light conditions. Solution 1: 2× solution of components with final concentrations of cMyc (25 nM), Ni-coated Acceptor Bead (25 μg/ml), and biotinylated Ebox oligo (10 nM). Solution 2: 2× solution of streptavidin-coated donor beads (25 μg/ml final) and his6-Max (1.25 nM final). […] Solution 1 were added to 384-well plate (AlphaPlate-384, PerkinElmer) with Biotek EL406 liquid handler and the plates were centrifuged at 1000 rpm for 1 minute. 100 nL of compounds from stock plates were added by pin transfer using a Janus Workstation. 10 μL Solution 2 were added with the liquid handler. Plates were sealed with foil to block light exposure and prevent evaporation. Plates were centrifuged at 1000 rpm for 1 minute followed by 2 hour incubation. AlphaScreen measurements were performed on an Envision 2104 utilizing the manufacturer's protocol. Excitation was at 680 nm for donor bead release of singlet oxygen and emission was read with a bandpass filter from 520-620 nm. Glycogen: Roche Diagnostics #10901393001. Plate 1536: Perkin Elmer, 6004350. Plate 384: Perkin Elmer, 6005350. Nickel-His Alpha Beads: 6760619R.

MM1S cells = experiment: Cell viability assay (ATPlite), MM1S; format: cell-based, human; conditions: for pEC50: cell viability, three days, ATPlite, NA: inactive under assay conditions
Method: (§1) This assay was used for the H2171 and MM1S cell data shown in Table 2, and for the Jurkat (an immortalized line of human T lymphocyte cells), Ly1 (OCI-Ly1 human non-Hodgkin lymphoma cell line), Ly4 (OCI-Ly4 human non-Hodgkin lymphoma cell line), H2172 (NCI-H2172 human non-small cell lung cancer cell line), and CA-46 (a human Burkitt's lymphoma cell line) cell data shown in Table 3 and FIG. 12. Cells were counted and adjusted to 60,000 cells/mL. Using a Biotek EL406, 50 μL of cells are media were distributed into 384 well white plates from Thermo. Immediately after plating, compound in DMSO was distributed to plates. For large plate sets, cells were returned to 37° C. incubator while not in use.
(§2) Compounds were added to plates using a 100 nL 384 well pin transfer manifold on a Janus workstation. Stocks were arrayed in 10 point quadruplicate dose response in DMSO stock in 384 well Greiner compound plates. After addition of compound, plates were incubated for three days in a 37° C. incubator.
(§3) Cell viability was read out using ATPlite from Perkin Elmer. Plates were removed from the incubator and brought to room temperature prior to use. Lyophilized powder was resuspended in lysis buffer and diluted 1:2 with DI water. 25 μL of this solution was added to each well using the Biotek liquid handler. Plates were sealed with adherent aluminum seals prior to vortexing and spinning down at 1000 g for 1 minute. Plates were incubated for 15 minutes at room temperature before signal was read on an Envision Plate Reader.

H2171 cells = experiment: Cell viability assay (ATPlite), H2171; format: cell-based, human; conditions: cell viability, three days, ATPlite, NA: inactive under assay conditions
Method: as §1, §2, §3

Sequence of c-Myc/Max/Ebox DNA (P01106 16-454): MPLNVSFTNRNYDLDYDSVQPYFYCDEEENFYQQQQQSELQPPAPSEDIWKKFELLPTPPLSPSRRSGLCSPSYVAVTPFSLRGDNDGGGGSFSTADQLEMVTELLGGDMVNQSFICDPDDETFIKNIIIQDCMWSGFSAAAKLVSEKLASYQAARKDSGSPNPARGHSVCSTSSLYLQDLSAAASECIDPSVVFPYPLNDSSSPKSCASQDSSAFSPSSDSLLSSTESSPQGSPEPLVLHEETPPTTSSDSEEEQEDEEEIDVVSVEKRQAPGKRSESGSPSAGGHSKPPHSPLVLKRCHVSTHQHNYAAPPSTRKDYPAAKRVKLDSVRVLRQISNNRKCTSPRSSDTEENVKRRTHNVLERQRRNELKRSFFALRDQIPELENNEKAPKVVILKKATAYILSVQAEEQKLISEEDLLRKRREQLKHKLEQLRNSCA

Row | SMILES | pIC50 (c-Myc/Max/Ebox DNA) | pEC50 (MM1S cells; Homo sapiens, MM1.S, 72 h) | pEC50 (H2171 cells; Homo sapiens, NCI-H2171, 72 h) | pEC50 (H2171 cells) | pEC50 (MM1S cells) | cellular activity/potency in cellular proliferation assay (MM1S cells; MM1.S, prodrug relative to free acid (FIG. 3, FIG. 4))
1 | CC(=O)OCOC(=O)c1cccc(/C=N/NC(=O)c2ccc(C(=O)OCOC(C)=O)c(-n3c(C)ccc3C)c2)c1 [Compound 114] | – | 4.93 | 5.92 | – | – | –
2 | Cc1ccc(C)n1-c1cc2ccccc2cc1C(=O)O [Compound 129] | 4.51 | 3.58 | 3.82 | – | – | –
3 | CC(=O)OCOC(=O)c1ccc(-n2c(C)ccc2C)cc1O [Compound 113] | – | – | – | 5.55 | 4.96 | –
4 | Cc1ccc(C)n1-c1cc(C(=O)N/N=C/c2ccccc2)ccc1C(=O)O [Compound 71] | 3.99 | 3.58 | 4.32 | – | – | –
5 | CCOC(=O)c1ccc(-n2c(C)ccc2-c2ccccc2)cc1 [Compound 13] | 3.84 | 4.16 | 4.26 | – | – | –
6 | Cc1ccc(C)n1-c1cc(C(=O)NN)ccc1C(=O)O [Compound 70] | 5.16 | 2.91 | – | 4.36 | – | –
7 | Cc1ccc(C)n1-c1cc(C(=O)NCCN2CCN(C)CC2)ccc1C(=O)O [Compound 74] | 3.98 | 1.56 | 3.92 | – | – | –
8 | CC(=O)OCOC(=O)c1ccc(C(=O)N/N=C/c2c(CO)cnc(C)c2O)cc1-n1c(C)ccc1C [Compound 111] | – | 4.66 | 5.62 | – | – | –
9 | Cc1ccc(C)n1-c1cc(C(=O)N/N=C/c2cc(F)ccc2C(F)(F)F)ccc1C(=O)O [Compound 91] | 5.40 | 2.37 | – | – | – | –
10 | COC(=O)c1ccc(-n2cccc2)cc1O [Compound 9] | – | 3.90 | 3.64 | – | – | –
11 | Cc1ccc(C)n1-c1cc(C(=O)NN)ccc1C(=O)O [Compound 142] | 5.12 | – | – | – | 3.20 | –
12 | CC(=O)OCOC(=O)c1ccc(-n2c(C)ccc2C)cc1O [Compound 144] | – | – | – | – | 3.35 | –
13 | COc1ccc(/C=N/NC(=O)c2ccc(C(=O)O)c(-n3c(C)ccc3C)c2)c(OC)c1 [Compound 85] | 4.42 | – | 4.01 | – | – | –
14 | Cc1ccc(C)n1-c1cc(C(=O)N/N=C/c2cccc3ncccc23)ccc1C(=O)O [Compound 106] | 4.82 | – | 3.84 | – | – | –
15 | Cc1ccc(C)n1-c1cc(C(=O)N/N=C/c2ccc3ccccc3n2)ccc1C(=O)O [Compound 90] | 4.76 | 4.28 | – | – | – | –
16 | Cc1ccc(C)n1-c1ccccc1C(N)=O [Compound 133] | – | 3.35 | – | – | – | –
17 | COc1ncc(/C=N/NC(=O)c2ccc(C(=O)O)c(-n3c(C)ccc3C)c2)c(OC)n1 [Compound 100] | 5.12 | – | 3.58 | – | – | –
18 | CC(=O)OCOC(=O)c1ccc(C(=O)N/N=C/c2ccc3cccnc3n2)cc1-n1c(C)ccc1C [Compound 115] | – | 4.87 | 6.04 | – | – | –
19 | CC(=O)OCOC(=O)c1ccccc1N1CCN(C)CC1 [Compound 159] | – | 3.68 | 4.08 | – | – | –
20 | CC(=O)OCOC(=O)c1cccc(/C=N/NC(=O)c2ccc(C(=O)OCOC(C)=O)c(-n3c(C)ccc3C)c2)c1 [acetomoxymethyl ester prodrug] | – | – | – | – | – | increases cellular potency
21 | Cc1ccc(C)n1-c1cc(C(=O)N/N=C/c2ccc3cccnc3n2)ccc1C(=O)O [Compound 105] | 5.53 | 3.93 | – | – | – | –
22 | CC(=O)OCOC(=O)c1ccc(C(=O)N/N=C/c2ccc(-c3nnn[nH]3)cc2)cc1-n1c(C)ccc1C [Compound 109] | – | 5.00 | 5.99 | – | – | –
23 | Cc1ccc(C)n1-c1cccc(C(=O)c2ccccc2)c1C(=O)O [Compound 136] | 4.02 | – | 3.67 | – | – | –

Now from value to compound, other results behind:

Row | pIC50 (c-Myc/Max/Ebox DNA) | pEC50 (MM1S cells; Homo sapiens, MM1.S, 72 h) | pEC50 (H2171 cells; Homo sapiens, NCI-H2171, 72 h) | pEC50 (H2171 cells) | pEC50 (MM1S cells) | SMILES | cellular activity/potency in cellular proliferation assay (MM1S cells; MM1.S, prodrug relative to free acid (FIG. 3, FIG. 4))
24 | 2.17 | 3.52 | – | – | – | Cc1ccc(C)n1-c1cnccc1C(=O)O [Compound 135] | –
25 | 3.78 | 3.89 | 3.98 | – | – | O=C(O)c1ccc(-n2cccc2)cc1O [Compound 16] | –
26 | 3.81 | 4.01 | – | – | – | Cc1ccc(C)n1-c1ccc(C(=O)O)c([N+](=O)[O-])c1 [Compound 163] | –
27 | 4.50 | 4.06 | – | – | – | Cc1ccc(C)n1-c1cc(C(=O)N/N=C/c2ccc(N(C)C)cc2)ccc1C(=O)O [Compound 87] | –
28 | – | 3.71 | 3.57 | – | – | Cc1c(C)c(C)n(-c2ccccc2C(=O)O)c1C [Compound 138] | –
29 | 4.09 | 3.68 | 4.12 | – | – | Cc1ccc(C)n1-c1ccc(C(=O)O)c(Cl)c1 [Compound 6] | –
30 | – | 2.45 | 4.17 | – | – | CC(=O)Oc1cc(-n2c(C)ccc2C)ccc1C(=O)O [Compound 66] | –
31 | 3.03 | 2.77 | 3.57 | – | – | Cc1ccc(-c2ccc(-n3c(C)ccc3C)c(C(=O)O)c2)cc1 [Compound 148] | –
32 | 4.87 | 3.79 | 4.08 | – | – | COc1cc(C(=O)O)c(-n2c(C)ccc2C)cc1OC [Compound 145] | –
33 | 5.31 | 2.09 | – | – | – | Cc1ccc(C)n1-c1cc(C(=O)N/N=C/c2c(Cl)ncnc2Cl)ccc1C(=O)O [Compound 88] | –
34 | 5.74 | 3.65 | 3.61 | – | – | CC(=O)Nc1ccc(-n2c(C)ccc2C)c(C(=O)O)c1 [Compound 155] | –
35 | – | 1.96 | – | – | – | Cc1ccc(C)n1-c1cc(C(=O)O)ccc1C(=O)O [Compound 157] | –
36 | 6.31 | – | 3.76 | – | – | Cc1ccc(C)n1-c1cc(C(=O)N/N=C\c2ccc(C(=O)O)s2)ccc1C(=O)O [Compound 122] | –
37 | – | 3.81 | 4.36 | – | – | CC(=O)OCOC(=O)c1ccccc1-n1ccnc1C [Compound 151] | –
38 | 4.46 | – | 4.42 | – | – | Cc1ccc(C)n1-c1cc(C(=O)N/N=C/c2c[nH]c3cc(F)ccc23)ccc1C(=O)O [Compound 96] | –
39 | – | 3.83 | 3.57 | – | – | O=C(O)c1ccccc1-n1c2ccccc2c2ccccc21 [Compound 141] | –
40 | 6.54 | – | 4.02 | – | – | Cc1ccc(C)n1-c1cc(C(=O)N/N=C\c2ccc(S(=O)(=O)O)cc2)ccc1C(=O)O [Compound 123] | –
41 | 5.57 | – | 3.97 | – | – | Cc1ccc(C)n1-c1cc(C(=O)N/N=C/c2ncc[nH]2)ccc1C(=O)O [Compound 81] | –
42 | – | 3.19 | 3.51 | – | – | Cc1ccc(C)n1-c1c(C(=O)O)cccc1[N+](=O)[O-] [Compound 132] | –
43 | 5.25 | 3.58 | – | – | – | Cc1ccc(C)n1-c1cc(C(=O)N/N=C/c2cncnc2)ccc1C(=O)O [Compound 93] | –
44 | 3.31 | – | 2.47 | – | – | COc1cc(-n2c(C)ccc2C)c(Cl)cc1C(=O)O [Compound 131] | –
45 | 5.03 | – | 4.49 | – | – | Cc1ccc(C)n1-c1cc(C(=O)N/N=C/c2cc(F)c(F)c(F)c2)ccc1C(=O)O [Compound 107] | –
46 | 5.26 | 2.98 | – | – | – | Cc1cc(C)c2c(=O)c(/C=N/NC(=O)c3ccc(C(=O)O)c(-n4c(C)ccc4C)c3)coc2c1 [Compound 97] | –
47 | – | 5.03 | 5.98 | – | – | CC(=O)OCOC(=O)c1ccc(C(=O)N/N=C/c2ccc(S(=O)(=O)O)o2)cc1-n1c(C)ccc1C [Compound 112] | –
